Source: the supplement of paper PMC13380429

Assays:
[1] = system: A549-ACE2 infected with SARS-CoV-2; assay: cell count relative to DMSO; higher = less toxic; details: 24 h
Caco-2 [2] = assay: cell viability relative to DMSO; higher = less toxic; details: 72 h
Calu-3 [3] = assay: as above; details: 72 h
HepG2 [4] = assay: as above; details: 72 h
U2OS [5] = assay: as above; details: 72 h
Vero E6 [6] = assay: as above; details: 72 h
[7] = system: A549-ACE2 infected with SARS-CoV-2; assay: SARS-CoV-2 infection rate relative to DMSO; higher = more infection; details: 24 h
A549-ACE2 [8] = assay: drug-induced phospholipidosis relative to tamoxifen; higher = more phospholipidosis
[9] = system: A549-ACE2 infected with SARS-CoV-2; assay: morphology score (similarity to uninfected cells); higher = more like uninfected cells; details: 24 h
Caco-2 [10] = assay: relative viability EC50 (midpoint between 100% and the lowest measured viability); higher = less toxic; details: 72 h
Calu-3 [11] = assay: as above; details: 72 h
U2OS [12] = assay: as above; details: 72 h
Vero E6 [13] = assay: as above; details: 72 h
Caco-2 [14] = assay: drug sensitivity score (DSS) for viability; higher = more toxic; extreme values may be limits of the assay; details: 72 h
Calu-3 [15] = assay: as above; details: 72 h
HepG2 [16] = assay: as above; details: 72 h
U2OS [17] = assay: as above; details: 72 h
Vero E6 [18] = assay: as above; details: 72 h
A549-ACE2 [19] = assay: phospholipidosis EC50; higher = less potent phospholipidosis inducer
HepG2 [20] = assay: relative viability EC50 (midpoint between 100% and the lowest measured viability); higher = less toxic; details: 72 h

Cn1cc(-c2cnn3c(N)c(Br)c([C@@H]4CCCNC4)nc23)cn1
Details | SARS-CoV-2 infection rate, [7] [%] | cell count, [1] [%] | cell viability, Caco-2 [2] [%] | cell viability, Calu-3 [3] [%] | cell viability, HepG2 [4] [%] | cell viability, U2OS [5] [%] | cell viability, Vero E6 [6] [%] | morphology score, [9]
1 nM | – | – | 92.5 | 99.2 | 98.8 | 98.3 | 102 | –
10 nM | – | – | 100 | 95.1 | 101 | 92 | 102 | –
100 nM | – | – | 93.4 | 97.6 | 88.7 | 100 | 98.2 | –
0.3 µM | 102 | 99 | – | – | – | – | – | -0.17
1000 nM | – | – | 97.7 | 93.3 | 75 | 73.4 | 95.7 | –
3 µM | 87 | 110 | – | – | – | – | – | 0.41
10 µM | 50 | 106 | – | – | – | – | – | 0.67
10000 nM | – | – | 86.2 | 100 | 52 | 13.7 | 82.1 | –
30 µM | 13 | 79 | – | – | – | – | – | 0.84

drug-induced phospholipidosis [%], A549-ACE2 [8]
Details | 0.3 µM | 0.833333 µM | 3.33333 µM | 6.66667 µM | 10 µM | 30 µM
24 h | 0.22 | 3.23 | 6.07 | 18.9 | 19.9 | 52.2
48 h | 3.9 | 4.18 | 8.86 | 16.4 | 18.3 | 60.6
72 h | 6.85 | 4.55 | 10.4 | 11.1 | 15.4 | –

Details | drug sensitivity score | relative viability EC50 [µM]
Caco-2 [10] | – | > 10
Caco-2 [14] | 0 | –
Calu-3 [11] | – | > 10
Calu-3 [15] | 0 | –
HepG2 [16] | 5.7 | –
U2OS [12] | – | 1.38
U2OS [17] | 8.7 | –
Vero E6 [13] | – | > 10
Vero E6 [18] | 0.9 | –

CN(C)C[C@H](O)Cn1c2ccc(Br)cc2c2cc(Br)ccc21 (racemic) [wiskostatin]
Details | SARS-CoV-2 infection rate [%] | cell count [%] | cell viability [%] | morphology score | phospholipidosis EC50 [µM]
A549-ACE2 [19], 24 h | – | – | – | – | 2.73
A549-ACE2 [19], 48 h | – | – | – | – | 3.44
A549-ACE2 [19], 72 h | – | – | – | – | 4.3
Caco-2 [2], 1 nM | – | – | 103 | – | –
Caco-2 [2], 10 nM | – | – | 105 | – | –
Caco-2 [2], 100 nM | – | – | 100 | – | –
Caco-2 [2], 1000 nM | – | – | 97.2 | – | –
Caco-2 [2], 10000 nM | – | – | 35 | – | –
Calu-3 [3], 1 nM | – | – | 110 | – | –
Calu-3 [3], 10 nM | – | – | 95.4 | – | –
Calu-3 [3], 100 nM | – | – | 123 | – | –
Calu-3 [3], 1000 nM | – | – | 104 | – | –
Calu-3 [3], 10000 nM | – | – | 20.7 | – | –
HepG2 [4], 1 nM | – | – | 108 | – | –
HepG2 [4], 10 nM | – | – | 105 | – | –
HepG2 [4], 100 nM | – | – | 107 | – | –
HepG2 [4], 1000 nM | – | – | 107 | – | –
HepG2 [4], 10000 nM | – | – | 27.2 | – | –
U2OS [5], 1 nM | – | – | 103 | – | –
U2OS [5], 10 nM | – | – | 98.8 | – | –
U2OS [5], 100 nM | – | – | 104 | – | –
U2OS [5], 1000 nM | – | – | 99.4 | – | –
U2OS [5], 10000 nM | – | – | 70.1 | – | –
Vero E6 [6], 1 nM | – | – | 110 | – | –
Vero E6 [6], 10 nM | – | – | 110 | – | –
Vero E6 [6], 100 nM | – | – | 106 | – | –
Vero E6 [6], 1000 nM | – | – | 100 | – | –
Vero E6 [6], 10000 nM | – | – | 48.2 | – | –
[1], 0.1 µM | – | 102 | – | – | –
[1], 0.3 µM | – | 100 | – | – | –
[1], 1 µM | – | 104 | – | – | –
[1], 3 µM | – | 119 | – | – | –
[7], 0.1 µM | 107 | – | – | – | –
[7], 0.3 µM | 98 | – | – | – | –
[7], 1 µM | 87 | – | – | – | –
[7], 3 µM | 46 | – | – | – | –
[9], 0.1 µM | – | – | – | 0.02 | –
[9], 0.3 µM | – | – | – | 0.05 | –
[9], 1 µM | – | – | – | 0.24 | –
[9], 3 µM | – | – | – | 0.74 | –

drug-induced phospholipidosis [%], A549-ACE2 [8]
Details | 0.3 µM | 0.833333 µM | 3.33333 µM | 6.66667 µM | 10 µM
24 h | 5.24 | 11.9 | 79.4 | 108 | 120
48 h | 4.43 | 7.26 | 89.6 | 176 | 184
72 h | 2.67 | 8.55 | 92.3 | 196 | 231

Details | drug sensitivity score | relative viability EC50 [µM]
Caco-2 [10] | – | 2.85
Caco-2 [14] | 3.9 | –
Calu-3 [11] | – | 3.47
Calu-3 [15] | 4 | –
HepG2 [16] | 3.5 | –
HepG2 [20] | – | 3.62
U2OS [17] | 1.4 | –
Vero E6 [13] | – | 3.2
Vero E6 [18] | 2.7 | –

Cc1ccccc1-n1c(Cn2ncc3c(N)ncnc32)nc2cccc(C)c2c1=O [PIK-293]
Details | SARS-CoV-2 infection rate [%] | cell count [%] | cell viability [%] | morphology score | phospholipidosis EC50 [µM]
A549-ACE2 [19], 24 h | – | – | – | – | 2.86
A549-ACE2 [19], 48 h | – | – | – | – | 3.88
Caco-2 [2], 1 nM | – | – | 101 | – | –
Caco-2 [2], 10 nM | – | – | 94.2 | – | –
Caco-2 [2], 100 nM | – | – | 91.1 | – | –
Caco-2 [2], 1000 nM | – | – | 95.8 | – | –
Caco-2 [2], 10000 nM | – | – | 89.9 | – | –
Calu-3 [3], 1 nM | – | – | 96.8 | – | –
Calu-3 [3], 10 nM | – | – | 90.5 | – | –
Calu-3 [3], 100 nM | – | – | 93 | – | –
Calu-3 [3], 1000 nM | – | – | 111 | – | –
Calu-3 [3], 10000 nM | – | – | 102 | – | –
HepG2 [4], 1 nM | – | – | 95.5 | – | –
HepG2 [4], 10 nM | – | – | 90 | – | –
HepG2 [4], 100 nM | – | – | 104 | – | –
HepG2 [4], 1000 nM | – | – | 95 | – | –
HepG2 [4], 10000 nM | – | – | 99.4 | – | –
U2OS [5], 1 nM | – | – | 91.4 | – | –
U2OS [5], 10 nM | – | – | 100 | – | –
U2OS [5], 100 nM | – | – | 93.6 | – | –
U2OS [5], 1000 nM | – | – | 100 | – | –
U2OS [5], 10000 nM | – | – | 95.5 | – | –
Vero E6 [6], 1 nM | – | – | 102 | – | –
Vero E6 [6], 10 nM | – | – | 99 | – | –
Vero E6 [6], 100 nM | – | – | 105 | – | –
Vero E6 [6], 1000 nM | – | – | 101 | – | –
Vero E6 [6], 10000 nM | – | – | 104 | – | –
[1], 0.3 µM | – | 84 | – | – | –
[1], 3 µM | – | 98 | – | – | –
[1], 10 µM | – | 65 | – | – | –
[7], 0.3 µM | 89 | – | – | – | –
[7], 3 µM | 27 | – | – | – | –
[7], 10 µM | 70 | – | – | – | –
[9], 0.3 µM | – | – | – | 0.21 | –
[9], 3 µM | – | – | – | 0.76 | –
[9], 10 µM | – | – | – | 0.02 | –

drug-induced phospholipidosis [%], A549-ACE2 [8]
Details | 0.3 µM | 0.833333 µM | 3.33333 µM | 6.66667 µM | 10 µM
24 h | 2.65 | 16.4 | 52.5 | 87.2 | 81
48 h | 5.81 | 14 | 48.3 | 99.5 | –
72 h | 3.73 | 6.21 | – | – | –

Details | drug sensitivity score | relative viability EC50 [µM]
Caco-2 [10] | – | > 10
Caco-2 [14] | 0 | –
Calu-3 [11] | – | > 10
Calu-3 [15] | 0 | –
HepG2 [16] | 0 | –
HepG2 [20] | – | > 10
U2OS [12] | – | > 10
U2OS [17] | 0 | –
Vero E6 [13] | – | > 10
Vero E6 [18] | 0 | –

CCc1cc2cc(OC)c(OC)cc2c(Cc2ccccc2)n1 [moxaverine]
Details | SARS-CoV-2 infection rate, [7] [%] | cell count, [1] [%] | cell viability, Caco-2 [2] [%] | cell viability, Calu-3 [3] [%] | cell viability, HepG2 [4] [%] | cell viability, U2OS [5] [%] | cell viability, Vero E6 [6] [%] | morphology score, [9]
1 nM | – | – | 89 | 95.7 | 101 | 101 | 96.5 | –
10 nM | – | – | 85.6 | 92.5 | 104 | 95.1 | 95.4 | –
100 nM | – | – | 104 | 95.9 | 98.5 | 99.6 | 92.2 | –
0.3 µM | 104 | 99 | – | – | – | – | – | -0.15
1000 nM | – | – | 90.9 | 96 | 103 | 95.5 | 95 | –
3 µM | 95 | 103 | – | – | – | – | – | 0.3
10 µM | 71 | 106 | – | – | – | – | – | 0.51
10000 nM | – | – | 105 | 100 | 106 | 96.8 | 107 | –
30 µM | 52 | 109 | – | – | – | – | – | 0.66

drug-induced phospholipidosis [%], A549-ACE2 [8]
Details | 0.3 µM | 0.833333 µM | 3.33333 µM | 6.66667 µM | 10 µM | 30 µM
24 h | 1.12 | 1.68 | 0.22 | 1.38 | 2.55 | 6.92
48 h | 3.81 | 1.7 | 2.59 | 3.75 | 3.82 | 13.6
72 h | 4.52 | 0.631 | 3.05 | 3.57 | 2.15 | 15.7

Details | drug sensitivity score | relative viability EC50 [µM]
Caco-2 [10] | – | > 10
Caco-2 [14] | 0 | –
Calu-3 [11] | – | > 10
Calu-3 [15] | 0 | –
HepG2 [16] | 0 | –
HepG2 [20] | – | > 10
U2OS [12] | – | > 10
U2OS [17] | 0 | –
Vero E6 [13] | – | > 10
Vero E6 [18] | 0 | –
